Patent publication US5654179A, “Nucleic acid preparation methods” (HRI Research, Inc., priority 1994, dated 1997)
Structures can show the parent of a compound that is named as a salt. Where two headings read alike, the source gives them in different places.

Columns and labels:
Taq polymerase [1] = type: biochemical; set-up: key to Effect of cofactors on serum albumin: BSA / Effect of cofactors on transferrin: Bovine Transferrin: The presence of product bands ("+") indicated that the cofactor was, in conjunction with transferrin or serum albumin, able to overcome inhibition
Procedure: (§1) Generally, PCR was carried out using 175-200 μM dNTPS (deoxyribonucleoside 5'-triphosphates) and 0.5 to 1.0 μM primers. Five units/100 μl of Taq polymerase were used. PCR reactions were overlaid with 30-100 μl light mineral oil. A typical PCR cycle for HIV amplification using a Perkin-Elmer Cetus DNA Thermal Cycler (Part No. N8010150) was: denaturation at 95° C. for 30 seconds; annealing at 55° C. for 30 seconds; and extension at 72° C. for 1 minute. PCR cycles were normally carried out in this manner for 35 cycles followed by 7 minutes at 72° C.
In some instances below, amplification of human histocompatibility (HLA) Class II genes was performed using primer pair GH26 (SEQ ID NO:2) and GH27 (SEQ ID NO:3) and human placental DNA to produce a 242-mer product (SEQ ID NO: 4). These primers and other primers are described in PCR Protocols: A Guide To Methods and Applications, Innis, M. A. et al. eds., pp. 261-271 (1990)).
Whole blood was prepared according to Mode III (see FIG. 1). Whole blood samples (100 μl) were lysed with protease K (0.5 mg/ml, 55° C. for 1 hour). The enzyme was inactivated by heating (95°-100°C., 10 minutes). Four sets of reactions were then set up involving the addition of interfering reagent to the protease lysate: 1) transferrin with 10 mM sodium bicarbonate; 2) transferrin with 20 mM sodium bicarbonate; 3) serum albumin with 10 mM sodium bicarbonate; and 4) serum albumin with no cofactor. These reaction were performed at room temperature for thirty minutes using a concentration range for transferrin and serum albumin (10, 25, 50, 75, 100, 150, 200 and 250 μg per 20 μl PCR rxn). PCR was then set up using the primer pair GH26/GH27 to produce a 242-mer product (see above). Two standard control reactions were run in separate tubes: i) a no nucleic acid target control; and 2) a positive control (human placental DNA). Four additional control lanes were run: 1) no inhibitor treatment (two lanes); 2) 10 mM sodium bicarbonate only (one lane); and 3) 50 μg transferrin only (one lane); and 4) transferrin with 10 mM sodium bicarbonate (two lanes). PCR was carried out for 35 cycles. The PCR products were thereafter electrophoresed (agarose) and visualized with ethidium bromide staining. The two above-named control reactions were electrophoresed in lanes 9 and 10 of FIG. 16A, respectively, as well as lanes 17 and 18 of FIG. 16B, respectively. In FIG. 16C, the positive control is in lane 1 and the negative control is in lane 2.
Whole blood was prepared according to Mode III (see FIG. 1). Whole blood samples (20 μl) were lysed with protease K (0.5 mg/ml, 55° C. for 1 hour). The enzyme was inactivated by heating (95°-100° C., 10 minutes). Reactions were then set up involving the addition of bovine transferrin or serum albumin with various cofactors, including bicarbonate ion, azide ion, thiocyanate ion, cyanate ion, oxalate ion, malonate ion, glycinate ion, and thioglycolate ion. These reaction were performed at room temperature for thirty minutes. PCR was then set up using the using primer pair GH26/GH27 to produce a 242-mer product (see above). PCR was carried out for 35 cycles. The PCR products were thereafter electrophoresed (agarose) and visualized with ethidium bromide staining.

Taq polymerase [2] = experiment: PCR inhibition, SK38/39 system, 115-mer product on ethidium bromide gel or autoradiograph; type: biochemical
Procedure: as §1
In other cases, amplification of HIV sequences was performed using primer pair SK-38 (SEQ ID NO:5) and SK-39 (SEQ ID NO:6) and 115-mer (SEQ ID NO:7) as target to produce a 115-mer product.
Where agarose gel electrophoresis was used, the PCR products were fractionated by electrophoresis through a 3% Nusieve/1% agarose gel in TBE buffer. Electrophoresis was typically carried out in a constant voltage of 8-10 V/cm. Following agarose gel electrophoresis, individual bands were, in most cases, visualized by ethidium bromide staining. This involved staining the agarose gel with 1 μg/ml ethidium bromide in TBE for 30 minutes followed by destaining the agarose gel with TBE for 30 minutes.
The chemical reaction was performed as follows. Two aliquots (30 mg/aliquot) of sodium borohydride (NaBH4) were added at ten minute intervals to 1 ml of 200 μM hematin (Sigma) in 1M Tris (pH 8.0) under argon in the dark. The pH was adjusted to 6.0 between additions. At the end of the reaction (20 minutes) the pH was adjusted to 1.0 and then neutralized to pH 7.0. Six aliquots (5 μl) of the product of the reaction corresponding to different amounts of reacted hematin (37.5 μM, 7.5 μM, 1.5 μM, 0.3 μM, 0.06 μM, 0.012 μM) were added to standard (20 μl) PCR reactions in different tubes using the SK38/39 system (see above). Three standard control reactions were run in separate tubes: i) a no nucleic acid target control; ii) a no primer control; and iii) a positive control (no hematin). In addition, unreacted hematin was added to four different tubes in different amounts (50 μM, 5 μM, 0.5 μM, and 0.05 μM). PCR was carried out for 30 cycles. The PCR products were thereafter electrophoresed (agarose) and visualized with ethidium bromide staining (FIG. 2A, lanes 1-13). The three above-named control reactions were electrophoresed in lanes 1, 2 and 3, respectively. […] The unreacted hematin tubes (lanes 4-7) show no product until hematin is present at a very low concentration (0.05 μM, lane 7), at which point product is evident. […] Indeed, product is evident where 1.5 μM reacted hematin or less was present. […] A score (i.e., % maximum intensity of a positive control) was given to each band. An OD unit of 1.0 corresponds to 100% of maximum intensity. After examination of a plot of the estimated OD units to the concentration of hematin (expressed in the log scale) in these PCR reactions, it is clear that approximately a thirty-fold concentration difference was achieved (reacted to unreacted).
The photochemical reaction was performed as follows. Stock biliverdin (Sigma, 5 mM) was diluted in solution (50 mM Tris pH 7.8) to a final concentration of 200 μM. Two aliquots (300 μl) were then made. One aliquot was left unreacted. The other aliquot was exposed to ultraviolet radiation from an HRI-100 for 16 hours using the industry standard, F8T5BL hot cathode dual bipin lamps. Thereafter, both the unirradiated and irradiated materials were added (5 μl) to standard (20 μl) PCR reactions in different tubes using the SK38/39 system (see above) and 10^9 copies of 115-mer target. Three standard control reactions were run in separate tubes: i) a no nucleic acid target control; ii) a positive control (no biliverdin); and iii) a no Taq control. PCR was carried out for thirty (30) cycles. The PCR products were thereafter electrophoresed (agarose) and visualized with ethidium bromide staining (FIG. 3A, lanes 1-5). […]

[3] = Spectroscopic analysis of photochemical treatment (300-700 nm scan); type: physicochemical
Procedure: In this case 0.5 ml of untreated biliverdin in solution (diluted in 50 mM Tris pH 7.8) to a final concentration corresponding to Apeak =0.7) was scanned using a Beckman Spectrophotometer Model DU-50 between 300 and 700 nm. Photochemically treated (1.5 hours and 16 hours of irradiation) biliverdin was similarly diluted and scanned. […] This corresponds to lane 5 in FIG. 3A where no PCR inhibition was observed.
In this case 0.5 ml of untreated bilirubin in solution (diluted in 50 mM Tris, pH 7.8 to a final concentration corresponding to Apeak =0.8) was scanned using a Beckman Spectrophotometer Model DU-50 between 300 and 700 nm. Photochemically treated (20 minutes, 60 minutes and 2.5 hours of irradiation) bilirubin was similarly diluted and scanned. […] With just 20 minutes of irradiation, this peak is reduced; with just 60 minutes of irradiation, this peak is weak; with 2.5 hours, it is eliminated. The 2.5 hour treatment corresponds to lane 8 in FIG. 4A where no PCR inhibition was observed.

Taq polymerase [4] = details: cited from earlier work; for inhibitory concentration in PCR: final concentration
[5] = tested on: DNA ligase from mouse erythroleukemia (MEL) cells; details: incubation with hemoglobin; cited from earlier work
[6] = hematin or protoporphyrin only, 500 μM stock

[N-]=[N+]=[N-] [Sodium Azide (NaN3), Sodium Azide]
Effect of cofactors on serum albumin: BSA (Taq polymerase [1]; cofactor with BSA): +

N#CO [Sodium Cyanate (NaOCN), Sodium Cyanate]
Effect of cofactors on serum albumin: BSA (Taq polymerase [1]): + | Effect of cofactors on transferrin: Bovine Transferrin (Taq polymerase [1]): +

O=C(O)CC(=O)O [Sodium Malonate (NaO2 CCH2 CO2 Na), Sodium Malonate]
Effect of cofactors on serum albumin: BSA (Taq polymerase [1]): +

O=C(O)O [Sodium Bicarbonate (NaHCO3), Sodium Bicarbonate]
Effect of cofactors on serum albumin: BSA (Taq polymerase [1]): + | Effect of cofactors on transferrin: Bovine Transferrin (Taq polymerase [1]): +

C=CC1=C(C)/C(=C/c2[nH]c(Cc3[nH]c(/C=C4\NC(=O)C(C)=C4C=C)c(C)c3CCC(=O)O)c(CCC(=O)O)c2C)NC1=O [bilirubin]
PCR product (Taq polymerase [2]; 400 μM bilirubin, 2.5 hrs irradiation): product is visible | PCR product (Taq polymerase [2]; 800 μM bilirubin, 3.5 hrs irradiation): product is visible | PCR product (Taq polymerase [2]; 2 mM bilirubin, 4 hrs irradiation): Product is not visible | PCR inhibition (Taq polymerase [2]; unreacted bilirubin, 400 μM, 800 μM and 2 mM): completely inhibited | absorbance peak at approximately 450 nm after irradiation ([3]; 20 minutes of irradiation): reduced | absorbance peak at approximately 450 nm after irradiation ([3]; 60 minutes of irradiation): weak | absorbance peak at approximately 450 nm after irradiation ([3]; 2.5 hours of irradiation): eliminated

C=CC1=C(C)c2cc3[n-]c(cc4[n-]c(cc5nc(cc1n2)C(C)=C5C=C)c(C)c4CCC(=O)O)c(CCC(=O)O)c3C.O.[Fe+2] [hematin]
PCR inhibition (Taq polymerase [2]; [6]): completely inhibited | concentration difference (reacted to unreacted) in PCR inhibition (Taq polymerase [2]; sodium borohydride reduction, visual band intensity): thirty | concentration at which PCR product is evident (Taq polymerase [2]; unreacted hematin, no product at 50, 5, 0.5 μM): 0.05 µM | inhibition of PCR / Taq polymerase (Taq polymerase [4]): potent inhibitors of Taq polymerase | inhibitory concentration in PCR (Taq polymerase [4]): ≥ 0.8 µM

[Fe+3] [Fe^+++]
inhibition of PCR / Taq polymerase (Taq polymerase [4]): inhibit PCR

O=C(O)CS [Sodium Thioglycolate (NaO2 CCH2 SH), Sodium Thioglycolate]
Effect of cofactors on serum albumin: BSA (Taq polymerase [1]): + | Effect of cofactors on transferrin: Bovine Transferrin (Taq polymerase [1]): +

C=CC1=C(C)c2cc3[nH]c(cc4nc(cc5[nH]c(cc1n2)c(C)c5CCC(=O)O)C(CCC(=O)O)=C4C)c(C)c3C=C [protoporphyrin]
PCR inhibition (Taq polymerase [2]; [6]): completely inhibited | inhibitory concentration in PCR (Taq polymerase [4]): 20 µM

hemoglobin
inhibition of DNA ligase from MEL cells [5]: not inhibitory

N#CS [Sodium Thiocyanate (NaSCN), Sodium Thiocyanate]
Effect of cofactors on serum albumin: BSA (Taq polymerase [1]): + | Effect of cofactors on transferrin: Bovine Transferrin (Taq polymerase [1]): +

[Fe+2] [Fe++]
inhibition of PCR / Taq polymerase (Taq polymerase [4]): inhibit PCR

O=C(O)O [cofactor, sodium bicarbonate]
PCR product (Taq polymerase [1]): No product is visible

C=CC1=C(C)/C(=C/C2=NC(=C\c3[nH]c(/C=C4\NC(=O)C(C)=C4C=C)c(C)c3CCC(=O)O)/C(CCC(=O)O)=C2C)NC1=O [biliverdin]
PCR product (Taq polymerase [2]; biliverdin photochemically treated 16 hrs): product is visible | PCR inhibition (Taq polymerase [2]; biliverdin unirradiated, 5 μl of 200 μM in 20 μl PCR): completely inhibited | absorbance peak at approximately 450 nm after irradiation ([3]; 1.5 hours of irradiation): very weak | absorbance peak at approximately 450 nm after irradiation ([3]; 16 hours of irradiation): eliminated completely

O=C(O)C(=O)O [Sodium Oxalate (NaO2 CCO2 Na), Sodium Oxalate]
Effect of cofactors on serum albumin: BSA (Taq polymerase [1]): +

NCC(=O)O [Sodium Glycinate (NaO2 CH2 NH2), Sodium Glycinate]
Effect of cofactors on serum albumin: BSA (Taq polymerase [1]): + | Effect of cofactors on transferrin: Bovine Transferrin (Taq polymerase [1]): +

C=CC1=C(C)c2cc3[n-]c(cc4[n-]c(cc5nc(cc1n2)C(C)=C5C=C)c(C)c4CCC(=O)O)c(CCC(=O)O)c3C.[Fe+2] [heme]
inhibitory concentration in PCR (Taq polymerase [4]): 0.8 µM

serum albumin
PCR product (Taq polymerase [1]; serum albumin 25 μg with cofactor (lane 9)): weak product band | PCR product (Taq polymerase [1]; serum albumin 10 to 250 μg without cofactor): No product is visible | PCR product (Taq polymerase [1]; serum albumin higher concentrations with cofactor (lanes 10-16)): strong product bands
